We go through twelve compounds from patent US9617251B2, “Indanylaminopyridylcyclopropanecarboxylic acids, pharmaceutical compositions and uses thereof” (BOEHRINGER INGELHEIM INTERNATIONAL GMBH, priority 2015, dated 2017).

The term pIC50 denotes −log10 of the IC50, conventionally taken in molar units. The pEC50 is −log10 of the EC50, conventionally taken in molar units. The low end stands for a large EC50, the high end for a small EC50. Usually solubility stands for how much of the substance goes into solution per volume.

The target of data set [1] is T1, cytochrome P450 2C9-isoenzyme (Homo sapiens, UniProt P11712).
T1 construct: from tissue; host or cells: human liver microsomes
The data set can be described thus: Inhibition of CYP-2C9 (hydroxylation of diclofenac, human liver microsomes). Type of data set: in vitro ADME. As to conditions: CYP-2C9, human liver microsomes, diclofenac 10 μM, 37° C. As for the experimental part:
The inhibition of cytochrome P450 2C9-isoenzyme catalyzed hydroxylation of diclofenac by the test compound is assayed at 37° C. with human liver microsomes. All assays are carried out on a robotic system in 96 well plates. The final incubation volume contains TRIS buffer (0.1 M), MgCl2 (5 mM), human liver microsomes (0.1 mg/mL), diclofenac (10 μM) and the test compound at five different concentrations or no compound (high control) in duplicate (e.g., highest concentration 10-50 μM with subsequent serial 1:4 dilutions). Following a short preincubation period, reactions are started with the cofactor (NADPH, 1 mM) and stopped by cooling the incubation down to 8° C. and subsequently by addition of one volume of acetonitrile. An internal standard solution—the stable isotope ^13C6-hydroxydiclofenac—is added after quenching of incubations. Peak area analyte (=metabolite formed) and internal standard is determined by LC-MS/MS. The resulting peak area ratio analyte to internal standard in these incubations is compared to a control activity containing no test compound. Within each of the assay runs, the IC50 of a positive control inhibitor (sulfaphenazole) is determined. Experimental IC50 values are calculated by least square regression according to the following equation: % control activity=(100% control activity/(1+(I/IC50)S))−B with I=inhibitor concentration; S=slope factor; B=background activity (lower plateau of the inhibition curve)
(§1) If the inhibition of the reaction is already >50% at the lowest concentration of the test compound, the IC50 is assigned “<lowest concentration tested” (usually <0.4 μM). If the inhibition of the reaction is still <50% at the highest concentration of the test compound, the IC50 is assigned “>highest concentration tested” (usually >50 μM).
Background: Microsomes from liver hold many membrane-bound enzymes, among them those of drug oxidation.

In data set [2] the target is human GPR40 receptor (Homo sapiens, UniProt O14842). Description: IP1 accumulation measurements using the IPOne assay system (1321N1 cells stably expressing human GPR40 receptor). The following applies: 1321N1 cells expressing human GPR40, 1 h stimulation at 37° C. The data set is classed as cell-based. How it is done:
IP1 accumulation measurements using the IPOne assay system—1321N1 cells stably expressing human GPR40 receptor (Euroscreen, Belgium) are seeded 24 h before the assay in white 384-well plates in culture medium containing 10% FCS, 1% Na-Pyruvate and 400 μg/mL G418. IP1 is assayed according to the manufacturer's description (Cisbio Bioassays, France). In brief, the assay is started by substitution of the culture medium by stimulation buffer (Hepes 10 mM, CaCl2 1 mM, MgCl2 0.5 mM, KCl 4.2 mM, NaCl 146 mM, glucose 5.5 mM and LiCl 50 mM, pH 7.4). Cells are stimulated for 1 h at 37° C., 5% CO2 by addition of the compounds that are diluted in stimulation buffer containing LiCl. Assays are stopped by adding HTRF-conjugates (IP1-d2 and Anti-IP1 cryptate Tb) and lysis buffer, provided by the manufacturer. After an incubation time of 1 h at room temperature plates are measured using an EnVision™, Perkin Elmer. The obtained fluorescence ratios at 665/615 […] are then used to calculate the pEC50 values using Assay Explorer 3.3 Software (Accelrys, Inc.) by interpolation using an IP1 reference curve and subsequent sigmoidal curve fitting allowing for a variable hill slope.

Data set [3] in a line: Aqueous solubility in buffer vs acetonitrile/water (1/1), LC-UV. Type of data set: physicochemical. As to conditions: kinetic from dmso stock, buffer pH 2.2, 24 h shaking, 2.5% DMSO. As for the experimental part: The aqueous solubility of the compounds of the invention is determined by comparing the amount dissolved in buffer to the amount in an acetonitrile/water (1/1) solution. Starting from a 10 mM DMSO stock solution aliquots are diluted with acetonitrile/water (1/1) or buffer, respectively. After 24 h of shaking, the solutions are filtrated and analyzed by LC-UV. The amount dissolved in buffer is compared to the amount in the acetonitrile solution.
Solubility is usually being measured from 0.001 to 0.125 mg/mL at a DMSO concentration of 2.5%. If more than 90% of the compound is dissolved in buffer, the value is marked with “>”.

A short description of data set [4]: Chemical stability: degradation kinetics in acidic aqueous media (pH ca. 1.2), HPLC recovery. The data set is classed as physicochemical. The following applies: pH value of ca. 1.2 (acetonitrile/0.1 M aqueous HCl 2:3), 37° C. How it is done: Degradation kinetics is used to simulate chemical stability of compounds in the acidic part of the gastro intestinal tract. […] Their application as medical drugs to treat human diseases is therefore less restricted and troublesome.
The chemical stability of the compounds of the invention at pH value of ca. 1.2 is determined as follows:
Compound is dissolved in an HPLC vial either in a mixture of acetonitrile/0.1 M aqueous HCl (2:3; pH ca. 1.2) or in a mixture of acetonitrile/McIlvaine buffer pH 7.4 (2:3) to get a concentration of approximately 0.25 mg/ml. The vial was then transferred into an HPLC autosampler system and maintained at a temperature of 37° C. A first sample is taken and injected immediately into a standard HPLC system with a UV DAD detector. Further samples are injected after 2, 4, 6, 8 and 10 hours. Amount of degraded compound is measured by determining the recovery rate of compound [%] for each injection using an HPLC standard gradient method. Therefore the peak area of the main peak for the first injection (AUt0) is determined and set as 100%. Peak area of the main peak is determined also for the further injections (AUtn, n=2, 4, 6, 8, 10) and expressed as fraction of (AUt0)/(AUtn, n=2, 4, 6, 8, 10) [%].

Data set [5] addresses T2, cytochrome P450 2C8-isoenzyme (Homo sapiens, UniProt P10632).
T2 construct: from tissue; host or cells: human liver microsomes
T2 sequence (P10632 1-490): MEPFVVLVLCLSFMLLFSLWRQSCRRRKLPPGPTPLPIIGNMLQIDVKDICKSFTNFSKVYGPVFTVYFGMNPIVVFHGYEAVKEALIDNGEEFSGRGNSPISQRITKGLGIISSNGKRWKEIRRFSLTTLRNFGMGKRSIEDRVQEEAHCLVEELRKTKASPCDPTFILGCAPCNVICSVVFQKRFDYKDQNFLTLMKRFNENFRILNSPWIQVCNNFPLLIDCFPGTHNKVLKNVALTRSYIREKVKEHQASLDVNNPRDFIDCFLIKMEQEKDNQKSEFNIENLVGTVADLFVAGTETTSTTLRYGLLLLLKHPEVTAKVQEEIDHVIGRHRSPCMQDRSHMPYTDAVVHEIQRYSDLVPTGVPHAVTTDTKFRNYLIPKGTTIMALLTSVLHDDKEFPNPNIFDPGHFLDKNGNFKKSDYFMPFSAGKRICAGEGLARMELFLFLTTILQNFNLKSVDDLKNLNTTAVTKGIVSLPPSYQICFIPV
The data set can be described thus: Inhibition of CYP-2C8 (deethylation of amodiaquine, human liver microsomes). As to conditions: CYP-2C8, human liver microsomes, amodiaquine 1 μM, 37° C. The data set is classed as in vitro ADME. How it is done: The inhibition of cytochrome P450 2C8-isoenzyme catalyzed deethylation of amodiaquine by the test compound is assayed at 37° C. with human liver microsomes. All assays are carried out on a robotic system in 96 well plates. The final incubation volume contains TRIS buffer (0.1 M), MgCl2 (5 mM), human liver microsomes (0.05 mg/mL), amodiaquine (1 μM) and the test compound at five different concentrations or no compound (high control) in duplicate (e.g. highest concentration 10-50 μM with subsequent serial 1:4 dilutions). Following a short preincubation period, reactions are started with the cofactor (NADPH, 1 mM) and stopped by cooling the incubation down to 8° C. and subsequently by addition of one volume of acetonitrile. An internal standard solution—the stable isotope d5-desethylamodiaquine—is added after quenching of incubations. Peak area analyte (=metabolite formed) and internal standard is determined by LC-MS/MS. The resulting peak area ratio analyte to internal standard in these incubations is compared to a control activity containing no test compound. Within each of the assay runs, the IC50 of a positive control inhibitor (Montelukast) is determined. Experimental IC50 values are calculated by least square regression according to the following equation: % control activity=(100% control activity/(1+(I/IC50)S))−B with I=inhibitor concentration; S=slope factor; B=background activity (lower plateau of the inhibition curve)
as §1

pEC50, pIC50: −log10 of the molar value. In brackets after ≈: the same amount, converted by molar mass.

T1 sequence (P11712 whole entry): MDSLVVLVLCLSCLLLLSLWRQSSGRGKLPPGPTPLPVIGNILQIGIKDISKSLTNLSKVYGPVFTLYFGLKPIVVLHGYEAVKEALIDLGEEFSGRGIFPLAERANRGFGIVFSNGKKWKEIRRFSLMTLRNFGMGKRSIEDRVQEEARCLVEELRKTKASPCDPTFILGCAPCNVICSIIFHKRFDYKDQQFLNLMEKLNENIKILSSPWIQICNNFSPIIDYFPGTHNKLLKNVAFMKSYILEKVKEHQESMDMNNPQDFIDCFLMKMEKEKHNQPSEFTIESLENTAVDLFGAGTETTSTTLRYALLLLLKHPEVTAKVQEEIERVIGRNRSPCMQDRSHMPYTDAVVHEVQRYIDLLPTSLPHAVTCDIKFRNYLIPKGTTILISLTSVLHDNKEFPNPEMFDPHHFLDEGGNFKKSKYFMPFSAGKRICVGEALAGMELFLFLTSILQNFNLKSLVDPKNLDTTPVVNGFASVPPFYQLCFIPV
Chain of human GPR40 receptor (O14842 whole entry): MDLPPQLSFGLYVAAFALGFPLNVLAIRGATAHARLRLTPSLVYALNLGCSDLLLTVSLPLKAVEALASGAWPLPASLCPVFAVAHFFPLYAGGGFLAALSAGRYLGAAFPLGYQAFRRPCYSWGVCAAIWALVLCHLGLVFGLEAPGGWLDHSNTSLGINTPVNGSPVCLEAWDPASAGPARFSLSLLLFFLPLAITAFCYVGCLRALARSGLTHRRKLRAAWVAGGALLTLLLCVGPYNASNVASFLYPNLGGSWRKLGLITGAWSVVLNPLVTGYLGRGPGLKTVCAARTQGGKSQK

Take `Cc1cc(-c2nnn(C)n2)cc(C)c1-c1cccc2c1CC[C@H]2Nc1ccc([C@H]2C[C@@H]2C(=O)O)cn1` [Example 1, (1S,2S)-2-(6-{(R)-4-[2,6-Dimethyl-4-(2-methyl-2H-tetrazol-5-yl)-phenyl]-indan-1-ylamino}-pyridin-3-yl)-cyclopropanecarboxylic acid]: the negative-log IC50 (pIC50) is 4.32 in data set [1] and 4.80 in data set [5]. In data set [2], this compound showed a pEC50 of 8.15. Also, in data set [3], the solubility at 24 h is 67 µg/mL (≈ 139 µM). Further, in data set [4], the “Amount of degradation after 2 h” value was under 0.5%.
For `Cc1cc(OCCC(C)(C)O)cc(C)c1-c1cccc2c1CC[C@H]2Nc1ccc([C@H]2C[C@@H]2C(=O)O)cn1` [Example 2, (1S,2S)-2-(6-{(R)-4-[4-(3-Hydroxy-3-methyl-butoxy)-2,6-dimethyl-phenyl]-indan-1-ylamino}-pyridin-3-yl)-cyclopropanecarboxylic acid], the pIC50 is under 4.30 in data set [1] and 4.52 in data set [5]. In data set [2], this compound had a pEC50 of 7.96. The same compound displayed a solubility at 24 h in data set [3] of 83 µg/mL (≈ 166 µM). Besides, the “Amount of degradation after 2 h” value in data set [4] is on record as under 0.5%.
With `Cc1cc(OCCC(C)(C)O)cc(C)c1-c1ccc(F)c2c1CC[C@H]2Nc1ccc([C@H]2C[C@@H]2C(=O)O)cn1` [Example 4, (1S,2S)-2-(6-{(R)-7-Fluoro-4-[4-(3-hydroxy-3-methyl-butoxy)-2,6-dimethyl-phenyl]-indan-1-ylamino}-pyridin-3-yl)-cyclopropanecarboxylic acid], the pIC50 in data set [1] is under 4.30; in data set [5] it was 4.34. This compound also showed a pEC50 in data set [2] of 8.10. Besides, the concentration in solution in data set [3] (solubility at 24 h) was 89 µg/mL (≈ 172 µM). Also, in data set [4], the “Amount of degradation after 2 h” value is given as under 0.5%.
Take `COc1cc(C)c(-c2ccc(F)c3c2CC[C@H]3Nc2ccc([C@H]3C[C@@H]3C(=O)O)cn2)c(C)c1` [Example 19]: the negative-log IC50 (pIC50) in data set [1] is 4.46; in data set [5] it was 4.59. In data set [2], this compound had a negative logarithm of the EC50 (pEC50) of 7.80. In data set [3], this compound had a solubility at 24 h of 67 µg/mL (≈ 150 µM). For the same compound, the “Amount of degradation after 2 h” value in data set [4] is listed as under 1.0%.
Consider `Cc1cc(C#N)cc(C)c1-c1ccc(F)c2c1CC[C@H]2Nc1ccc([C@H]2C[C@@H]2C(=O)O)cn1` [Example 20], for which the pIC50 in data set [1] is 4.48; in data set [5], 4.62. The negative logarithm of the EC50 (pEC50) in data set [2] was 7.74. The solubility at 24 h in data set [3] came to 66 µg/mL (≈ 149 µM). In data set [4], the “Amount of degradation after 2 h” value is under 0.5%.
The corresponding values for `Cc1cc(C(N)=O)cc(C)c1-c1ccc(F)c2c1CC[C@H]2Nc1ccc([C@H]2C[C@@H]2C(=O)O)cn1` [Example 21] are under 4.30, under 4.30, 7.22, 83 µg/mL (≈ 181 µM) and under 0.5%.
Take `CCc1cccc(CC)c1-c1ccc(F)c2c1CC[C@H]2Nc1ccc([C@H]2C[C@@H]2C(=O)O)cn1` [Example 23]: the pIC50 in data set [1] was 4.82; in data set [5], 4.96. This compound also gave a pEC50 in data set [2] of 8.30. Also, in data set [3], the solubility at 24 h was 75 µg/mL (≈ 169 µM). For the same compound, in data set [4], the “Amount of degradation after 2 h” value is on record as under 0.5%.
Regarding `Cc1nc(-c2cc(C)c(-c3ccc(F)c4c3CC[C@H]4Nc3ccc([C@H]4C[C@@H]4C(=O)O)cn3)c(C)c2)no1` [Example 26], the pIC50 is under 4.30 in data set [1] and 4.46 in data set [5]. In data set [2], this compound showed a pEC50 of 8.40. The same compound came in with a solubility at 24 h in data set [3] of 65 µg/mL (≈ 130 µM). In addition, the “Amount of degradation after 2 h” value in data set [4] is reported as under 0.5%.
For `Cc1cc(OCC2CCOCC2)cc(C)c1-c1ccc(F)c2c1CC[C@H]2Nc1ccc([C@H]2C[C@@H]2C(=O)O)cn1` [Example 61], the results for the pIC50 in data set [1] and in data set [5] were 4.48 and 4.82, respectively. Moreover, the pEC50 in data set [2] is 8.30. The solubility at 24 h in data set [3] came out at 90 µg/mL (≈ 170 µM).
The corresponding values for `Cc1cc(-c2ccn(C)c(=O)n2)cc(C)c1-c1ccc(F)c2c1CC[C@H]2Nc1ccc([C@H]2C[C@@H]2C(=O)O)cn1` [Example 71] are under 4.30, 4.74, 8.22 and 121 µg/mL (≈ 231 µM).
`Cc1cc(OCC2(O)CCSCC2)cc(C)c1-c1ccc(F)c2c1CC[C@H]2Nc1ccc([C@H]2C[C@@H]2C(=O)O)cn1` [Example 73]: the pIC50 was 4.35 in data set [1] and 4.70 in data set [5]. The pEC50 in data set [2] is 7.77. For the same compound, the solubility at 24 h in data set [3] was determined as 89 µg/mL (≈ 158 µM).
On to `COc1c(F)c(F)c(-c2ccc(F)c3c2CC[C@H]3Nc2ccc([C@H]3C[C@@H]3C(=O)O)cn2)c(F)c1F` [Example 76], for which the pIC50 in data set [1] is 4.40; in data set [5] it was 4.52. In data set [2], this compound gave a pEC50 of 8.52. In data set [3], this compound showed a solubility at 24 h of 104 µg/mL (≈ 212 µM).
